From the NIST ThermoML archive (doi:10.1021/je800152d)
± gives the expanded uncertainty stated by the source.

Assay: cn = amount concentration of the nth substance listed, in mol/dm3
Settings: 298.15 K, 101 kPa, Liquid, Direct current cell with electrodes

CCCCCCCCn1cc[n+](C)c1.O=S(=O)([N-]S(=O)(=O)C(F)(F)F)C(F)(F)F + ClCCl
Settings | molar conductivity [S·m2/mol]
c1 = 1.807e-05 | 0.005919 ± 2.4e-05
c1 = 4.306e-05 | 0.004426 ± 1.8e-05
c1 = 7.895e-05 | 0.003536 ± 1.4e-05
c1 = 0.0001156 | 0.003048 ± 1.2e-05
c1 = 0.0001516 | 0.002738 ± 1.1e-05
c1 = 0.0001934 | 0.002482 ± 9.9e-06
c1 = 0.0002361 | 0.002291 ± 9.2e-06
c1 = 0.0002758 | 0.002153 ± 8.6e-06
c1 = 0.000322 | 0.002022 ± 8.1e-06
c1 = 0.000369 | 0.001913 ± 7.7e-06

CCCCCC[n+]1ccn(C)c1.O=S(=O)([N-]S(=O)(=O)C(F)(F)F)C(F)(F)F + ClCCl
Settings | molar conductivity [S·m2/mol]
c1 = 3.872e-05 | 0.004826 ± 1.9e-05
c1 = 7.796e-05 | 0.003727 ± 1.5e-05
c1 = 0.0001134 | 0.003224 ± 1.3e-05
c1 = 0.0001471 | 0.002907 ± 1.2e-05
c1 = 0.0001812 | 0.002674 ± 1.1e-05
c1 = 0.000212 | 0.00251 ± 1e-05
c1 = 0.0002454 | 0.002365 ± 9.5e-06
c1 = 0.0002746 | 0.002261 ± 9e-06
c1 = 0.0003046 | 0.002169 ± 8.7e-06
c1 = 0.0003313 | 0.002097 ± 8.4e-06

CCCC[n+]1ccn(C)c1.O=S(=O)([N-]S(=O)(=O)C(F)(F)F)C(F)(F)F + ClCCl
Settings | molar conductivity [S·m2/mol]
c1 = 3.993e-05 | 0.005031 ± 2e-05
c1 = 7.416e-05 | 0.004 ± 1.6e-05
c1 = 0.0001094 | 0.00344 ± 1.4e-05
c1 = 0.0001439 | 0.003085 ± 1.2e-05
c1 = 0.0001819 | 0.002807 ± 1.1e-05
c1 = 0.0002096 | 0.002651 ± 1.1e-05
c1 = 0.0002378 | 0.002519 ± 1e-05
c1 = 0.0002686 | 0.002394 ± 9.6e-06
c1 = 0.000298 | 0.002296 ± 9.2e-06
c1 = 0.0003273 | 0.002211 ± 8.9e-06

CCCCn1cc[n+](C)c1C.O=S(=O)([N-]S(=O)(=O)C(F)(F)F)C(F)(F)F + ClCCl
Settings | molar conductivity [S·m2/mol]
c1 = 1.989e-05 | 0.008834 ± 3.5e-05
c1 = 6.027e-05 | 0.006684 ± 2.7e-05
c1 = 9.148e-05 | 0.005885 ± 2.4e-05
c1 = 0.000124 | 0.005336 ± 2.1e-05
c1 = 0.0001564 | 0.004935 ± 2e-05
c1 = 0.0001888 | 0.004628 ± 1.8e-05
c1 = 0.0002366 | 0.004278 ± 1.7e-05
c1 = 0.0002859 | 0.004001 ± 1.6e-05
c1 = 0.0003299 | 0.003802 ± 1.5e-05
c1 = 0.0003742 | 0.003634 ± 1.5e-05

CCCCn1cc[n+](C)c1C.F[P-](F)(F)(F)(F)F [1-butyl-2,3-dimethylimidazolium hexafluorophosphate] + ClCCl
Settings | molar conductivity [S·m2/mol]
c1 = 4.824e-05 | 0.006815 ± 2.7e-05
c1 = 9.247e-05 | 0.00553 ± 2.2e-05
c1 = 0.0001694 | 0.004468 ± 1.8e-05
c1 = 0.0002351 | 0.003966 ± 1.6e-05
c1 = 0.0003147 | 0.003557 ± 1.4e-05
c1 = 0.0003984 | 0.003254 ± 1.3e-05
c1 = 0.0004826 | 0.003028 ± 1.2e-05
c1 = 0.0005864 | 0.002809 ± 1.1e-05
c1 = 0.0007039 | 0.002623 ± 1e-05
c1 = 0.0008092 | 0.002481 ± 9.9e-06

CCCCn1cc[n+](C)c1C.F[B-](F)(F)F [1-butyl-2,3-dimethylimidazolium tetrafluoroborate] + ClCCl
Settings | molar conductivity [S·m2/mol]
c1 = 4.614e-05 | 0.006049 ± 2.4e-05
c1 = 9.614e-05 | 0.0047 ± 1.9e-05
c1 = 0.0001552 | 0.003942 ± 1.6e-05
c1 = 0.0002185 | 0.003459 ± 1.4e-05
c1 = 0.0002763 | 0.003161 ± 1.3e-05
c1 = 0.0003472 | 0.002891 ± 1.2e-05
c1 = 0.0004196 | 0.002684 ± 1.1e-05
c1 = 0.0005021 | 0.002502 ± 1e-05
c1 = 0.0005985 | 0.002336 ± 9.4e-06
c1 = 0.0006827 | 0.00222 ± 8.9e-06

CCCCn1cc[n+](C)c1.F[P-](F)(F)(F)(F)F [1-butyl-3-methylimidazolium hexafluorophosphate] + ClCCl
Settings | molar conductivity [S·m2/mol]
c1 = 6.999e-05 | 0.003807 ± 1.5e-05
c1 = 0.0001329 | 0.002948 ± 1.2e-05
c1 = 0.0001743 | 0.002637 ± 1.1e-05
c1 = 0.0002133 | 0.002425 ± 9.7e-06
c1 = 0.0002543 | 0.002259 ± 9e-06
c1 = 0.0003123 | 0.002073 ± 8.3e-06
c1 = 0.0003665 | 0.001941 ± 7.8e-06
c1 = 0.0004379 | 0.001804 ± 7.2e-06
c1 = 0.0005447 | 0.001647 ± 6.6e-06
c1 = 0.0006393 | 0.001541 ± 6.2e-06

CCCCn1cc[n+](C)c1.F[B-](F)(F)F [1-butyl-3-methylimidazolium tetrafluoroborate] + ClCCl
Settings | molar conductivity [S·m2/mol]
c1 = 4.455e-05 | 0.003701 ± 1.5e-05
c1 = 0.0001304 | 0.002353 ± 9.4e-06
c1 = 0.0002072 | 0.001927 ± 7.7e-06
c1 = 0.0002805 | 0.001689 ± 6.8e-06
c1 = 0.0003592 | 0.00152 ± 6.1e-06
c1 = 0.0004262 | 0.001412 ± 5.7e-06
c1 = 0.0005183 | 0.001299 ± 5.2e-06
c1 = 0.000625 | 0.0012 ± 4.8e-06
c1 = 0.0007268 | 0.001127 ± 4.5e-06
c1 = 0.0008458 | 0.001058 ± 4.2e-06
